From ChEMBL document CHEMBL1201862, “PubChem BioAssay data set” (2004)
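The compound was tested at five concentrations on cells cultured in 96-well plates, with a 48-hour exposure period. At the GI50, growth is halved.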 The source made the active and inactive calls. Rule as the data show it: active = GI50 up to about 1.1 µM and inactive = higher.

How the values were obtained:
Assay in all cases: inhibition of tumour cell growth, NCI panel, 48 h
CCRF-CEM = test system: CCRF-CEM
HCT-116 = test system: HCT-116
HOP-62 = test system: HOP-62
M19-MEL = test system: M19-MEL
NCI-H460 = test system: NCI-H460
OVCAR-3 = test system: OVCAR-3
OVCAR-4 = test system: OVCAR-4
OVCAR-5 = test system: OVCAR-5
RPMI-8226 = test system: RPMI-8226
SF-539 = test system: SF-539
SK-MEL-2 = test system: SK-MEL-2
SW-620 = test system: SW-620
UACC-257 = test system: UACC-257
UO-31 = test system: UO-31
IGROV-1 = test system: IGROV-1
SNB-75 = test system: SNB-75
DU-145 = test system: DU-145
Hs-578T = test system: Hs-578T
PC-3 = test system: PC-3
T47D = test system: T47D

Measured: GI50

N#Cc1sc2nc3c(c(-c4ccccc4)c2c1N)CCCC3
inactive: CCRF-CEM > 100 µM | HCT-116 33.2 µM | HOP-62 > 10 µM | M19-MEL > 100 µM | NCI-H460 55.2 µM | OVCAR-3 > 10 µM | OVCAR-4 > 100 µM | OVCAR-5 > 100 µM | RPMI-8226 > 100 µM | SF-539 23.9 µM | SK-MEL-2 > 100 µM | SW-620 > 100 µM | UACC-257 > 100 µM | UO-31 > 100 µM

CCCc1nc(NC#N)nc(C(=O)Nc2ccccc2)c1CC
inactive: HCT-116 > 100 µM | HOP-62 > 100 µM | IGROV-1 > 100 µM | M19-MEL > 100 µM | NCI-H460 > 100 µM | OVCAR-3 > 100 µM | OVCAR-5 > 100 µM | RPMI-8226 > 100 µM | SF-539 > 100 µM | SK-MEL-2 > 100 µM | SNB-75 > 100 µM | SW-620 > 100 µM | UACC-257 > 100 µM | UO-31 > 100 µM

C#CCOCn1cnc2c(S)ncnc21
inactive: CCRF-CEM > 100 µM | HOP-62 > 100 µM | IGROV-1 > 100 µM | M19-MEL > 100 µM | NCI-H460 > 100 µM | OVCAR-3 > 100 µM | OVCAR-4 > 100 µM | OVCAR-5 > 100 µM | RPMI-8226 > 100 µM | SK-MEL-2 > 100 µM | SNB-75 13.6 µM | SW-620 > 100 µM | UACC-257 > 100 µM | UO-31 > 100 µM

CC1(C)OC(=O)C(=Cc2ccc(O)cc2)C(=O)O1
inactive: CCRF-CEM > 100 µM | HCT-116 > 100 µM | HOP-62 > 100 µM | IGROV-1 > 100 µM | M19-MEL > 100 µM | NCI-H460 > 100 µM | OVCAR-3 > 100 µM | OVCAR-4 > 100 µM | OVCAR-5 > 100 µM | RPMI-8226 > 100 µM | SF-539 > 100 µM | SK-MEL-2 > 100 µM | SW-620 > 100 µM | UACC-257 > 100 µM | UO-31 > 100 µM

CC(c1ccccc1)N1O[C@]12CC[C@@]1(C)C(CCCC13OCCO3)C2 (stereo partly drawn)
inactive: HCT-116 16.1 µM | HOP-62 > 100 µM | IGROV-1 3.72 µM | M19-MEL 23 µM | NCI-H460 20.4 µM | OVCAR-3 18.7 µM | OVCAR-4 17.5 µM | OVCAR-5 > 100 µM | RPMI-8226 35.7 µM | SF-539 56.2 µM | SNB-75 22.1 µM | SW-620 16.7 µM | UACC-257 21.4 µM | UO-31 18 µM

c1ccc(COc2cccc3cccnc23)cc1
inactive: CCRF-CEM 31.5 µM | HCT-116 83.6 µM | HOP-62 > 100 µM | IGROV-1 85.7 µM | M19-MEL 67.3 µM | NCI-H460 > 100 µM | OVCAR-3 63.5 µM | OVCAR-4 97.3 µM | OVCAR-5 > 100 µM | RPMI-8226 > 100 µM | SF-539 > 100 µM | SNB-75 67.9 µM | SW-620 > 100 µM | UACC-257 > 100 µM | UO-31 56.9 µM

Nc1cc2c(C3OC(CO)C(O)C3O)n[nH]c2c(=S)[nH]1 (stereo not drawn)
inactive: CCRF-CEM > 100 µM | HCT-116 > 100 µM | HOP-62 > 100 µM | IGROV-1 > 100 µM | M19-MEL > 100 µM | NCI-H460 > 100 µM | OVCAR-4 92.5 µM | OVCAR-5 > 100 µM | RPMI-8226 > 100 µM | SF-539 > 100 µM | SK-MEL-2 98.2 µM | SNB-75 > 100 µM | SW-620 > 100 µM | UACC-257 > 100 µM | UO-31 > 100 µM

COc1cc(C2=NNC(=O)c3ccccc3N2c2nc(-c3cccs3)nc3ccc(Br)cc23)cc(OC)c1OC
inactive: CCRF-CEM 1.45 µM | DU-145 14.7 µM | HCT-116 12.4 µM | HOP-62 15.6 µM | Hs-578T 5.48 µM | IGROV-1 10.8 µM | NCI-H460 2.91 µM | OVCAR-3 5.4 µM | OVCAR-4 4.55 µM | OVCAR-5 40.1 µM | PC-3 10.3 µM | RPMI-8226 2.42 µM | SF-539 10.9 µM | SK-MEL-2 31.2 µM | SNB-75 55 µM | SW-620 18.4 µM | T47D 15.1 µM | UACC-257 21.5 µM | UO-31 16.1 µM

O=C1/C(=C/c2ccccc2Cl)COc2ccc(Br)cc21
inactive: CCRF-CEM 4.49 µM | HCT-116 25.1 µM | HOP-62 92.7 µM | IGROV-1 > 100 µM | M19-MEL > 100 µM | NCI-H460 > 100 µM | OVCAR-3 37.3 µM | OVCAR-5 > 100 µM | RPMI-8226 2.1 µM | SF-539 52.8 µM | SK-MEL-2 82.8 µM | SNB-75 30.4 µM | SW-620 23.8 µM | UACC-257 > 100 µM | UO-31 55.7 µM

CC(=O)OCC1OC(n2cc(I)c(=O)[nH]c2=O)C(OC(C)=O)C(OC(C)=O)C1OC(C)=O (stereo not drawn)
inactive: CCRF-CEM > 100 µM | HCT-116 > 100 µM | HOP-62 > 100 µM | IGROV-1 > 100 µM | M19-MEL > 100 µM | NCI-H460 > 100 µM | OVCAR-3 > 100 µM | OVCAR-4 > 100 µM | OVCAR-5 > 100 µM | RPMI-8226 > 100 µM | SK-MEL-2 > 100 µM | SNB-75 82.8 µM | SW-620 > 100 µM | UACC-257 > 100 µM | UO-31 > 100 µM

N#CC(=N)c1ncn(-c2ccc(N)cc2)c1N
inactive: CCRF-CEM > 100 µM | DU-145 > 100 µM | HCT-116 > 100 µM | HOP-62 > 100 µM | Hs-578T > 100 µM | IGROV-1 > 100 µM | NCI-H460 > 100 µM | OVCAR-3 > 100 µM | OVCAR-4 > 100 µM | OVCAR-5 > 100 µM | PC-3 > 100 µM | RPMI-8226 > 100 µM | SF-539 > 100 µM | SK-MEL-2 > 100 µM | SNB-75 > 100 µM | SW-620 > 100 µM | T47D > 100 µM | UACC-257 > 100 µM | UO-31 > 100 µM

COc1cc(CNc2nc3ccccc3n2Cc2ccccc2)cc(CN2CCOCC2)c1O
inactive: CCRF-CEM 28.3 µM | DU-145 80.9 µM | HCT-116 21.2 µM | HOP-62 28.6 µM | Hs-578T 29.9 µM | IGROV-1 52 µM | NCI-H460 50.9 µM | OVCAR-3 20.6 µM | OVCAR-4 61.4 µM | OVCAR-5 26.5 µM | PC-3 29.4 µM | RPMI-8226 91 µM | SF-539 20 µM | SK-MEL-2 22.4 µM | SNB-75 27.9 µM | SW-620 45.6 µM | T47D > 100 µM | UACC-257 20.1 µM | UO-31 18.2 µM

CC(=O)O/C=C\OC1CCCC1(c1ccccc1)c1ccccc1 (stereo not drawn)
inactive: CCRF-CEM 2.37 µM | DU-145 3.95 µM | HCT-116 1.98 µM | HOP-62 12.4 µM | Hs-578T 3.1 µM | IGROV-1 2.24 µM | NCI-H460 7.26 µM | OVCAR-3 2.9 µM | OVCAR-4 2.1 µM | OVCAR-5 7.13 µM | PC-3 3.12 µM | RPMI-8226 2.65 µM | SF-539 1.73 µM | SK-MEL-2 3.57 µM | SNB-75 3.35 µM | SW-620 2.42 µM | T47D 2.47 µM | UACC-257 3.65 µM | UO-31 1.94 µM

COc1ccc(C2C(C#N)=C(S)N(C3OC(COC(C)=O)C(OC(C)=O)C(OC(C)=O)C3OC(C)=O)C(C)=C2C(C)=O)cc1 (stereo not drawn)
inactive: CCRF-CEM 30.3 µM | DU-145 > 100 µM | HCT-116 65 µM | HOP-62 > 100 µM | Hs-578T 59.3 µM | IGROV-1 > 100 µM | NCI-H460 83.4 µM | OVCAR-3 64.7 µM | OVCAR-4 53 µM | OVCAR-5 > 100 µM | PC-3 31.3 µM | RPMI-8226 73.1 µM | SF-539 > 100 µM | SK-MEL-2 > 100 µM | SNB-75 26.4 µM | SW-620 42.3 µM | T47D 28.6 µM | UACC-257 > 100 µM | UO-31 81.8 µM

Cc1ccc(C)c(N2C(=O)C(=O)C(c3nc4ccccc4s3)/C(=N/NC(=O)NN)C2=O)c1 (stereo not drawn)
inactive: CCRF-CEM > 100 µM | HCT-116 > 100 µM | HOP-62 > 100 µM | IGROV-1 > 100 µM | M19-MEL > 100 µM | NCI-H460 > 100 µM | OVCAR-3 > 100 µM | OVCAR-4 > 100 µM | SF-539 > 100 µM | SK-MEL-2 > 100 µM | SNB-75 > 100 µM | SW-620 > 100 µM | UACC-257 > 100 µM | UO-31 > 100 µM

O=C(O)c1ccccc1CC1Cc2ccccc2C1=O (stereo not drawn)
inactive: CCRF-CEM > 100 µM | DU-145 > 100 µM | HCT-116 > 100 µM | HOP-62 > 100 µM | Hs-578T > 100 µM | IGROV-1 > 100 µM | NCI-H460 > 100 µM | OVCAR-3 > 100 µM | OVCAR-4 > 100 µM | OVCAR-5 > 100 µM | PC-3 > 100 µM | RPMI-8226 > 100 µM | SF-539 > 100 µM | SK-MEL-2 > 100 µM | SNB-75 64.7 µM | SW-620 > 100 µM | T47D > 100 µM | UACC-257 > 100 µM | UO-31 > 100 µM

Cc1cccc2c(N)c3cccc(C(=O)NCC[N+]4(Cc5ccc([N+](=O)[O-])cc5)CCOCC4)c3nc12
inactive: CCRF-CEM 26.1 µM | DU-145 27.3 µM | HCT-116 16.1 µM | HOP-62 25.7 µM | Hs-578T 7.26 µM | IGROV-1 20.6 µM | NCI-H460 14.6 µM | OVCAR-3 61.1 µM | OVCAR-4 61.9 µM | OVCAR-5 > 100 µM | PC-3 40.4 µM | RPMI-8226 26.1 µM | SF-539 24.8 µM | SK-MEL-2 > 79.1 µM | SNB-75 16 µM | SW-620 44.2 µM | T47D 29.2 µM | UACC-257 60.3 µM | UO-31 48.2 µM
